Calls of active or inactive are those of the source. The rule behind the calls is not given here.
Key:
Huh-7 [1] = experiment: Induction of autophagy in human Huh-7 cells assessed as colocalization of lysosome with LAMP1 protein at 100 nM incubated for 3 hrs by DAPI staining based fluorescence based analysis; type: functional, cell-based
Huh-7 [2] = experiment: Induction of autophagy in human Huh-7 cells assessed as colocalization of lysosome with LC3B protein at 100 nM incubated for 3 hrs by DAPI staining based fluorescence based analysis; type: functional, cell-based
[3] = Oral bioavailability in C57 mouse at 5 mg/kg; type: ADME, organism-based; conditions: in vivo
[4] = Toxicity in mouse assessed as kidney damage at 5 to 15 mg/kg, po; type: organism-based; conditions: in vivo, dose 5-15 mg/kg
THP-1 [5] = experiment: Antiproliferative activity human THP-1 cells assessed as inhibition of cell growth incubated for 24 hrs by MTT assay; type: functional, cell-based
HUVEC [6] = experiment: Anti-atherosclerosis activity in human HUVEC cells transfected with PCSK9 siRNA assessed as inhibition of LPS-induced ICAM-1 mRNA expression at 100 nM preincubated with compound for 24 hrs followed by LPS induction and measured after 24 hrs by qPCR analysis; type: functional, cell-based; conditions: time 48.0 hrs
[7] = AUC (0 to t) in C57 mouse at 5 mg/kg, iv; type: ADME, organism-based; conditions: in vivo
THP-1 [8] = experiment: Anti-atherosclerosis activity in human THP-1 cells transfected with PCSK9 siRNA assessed as reduction in NF-kappaB level at 100 nM preincubated with compound for 24 hrs followed by ox-LDL induction and measured after 24 hrs by Western blot analysis; type: functional, cell-based; conditions: time 48.0 hrs
HepG2 = experiment: Antiproliferative activity human HepG2 cells assessed as inhibition of cell growth incubated for 24 hrs by MTT assay; type: functional, cell-based
[9] = Tmax in C57 mouse at 5 mg/kg, po; type: ADME, organism-based; conditions: in vivo
Huh-7 [10] = experiment: Induction of autophagy in human Huh-7 cells assessed as reduction in PCSK9 level at 37 uM incubated for 24 hrs in presence of chloroquine by Western blot analysis; type: functional, cell-based
[11] = Toxicity in mouse assessed as change in body weight at 5 to 15 mg/kg, po; type: organism-based; conditions: in vivo, dose 5-15 mg/kg
HUVEC [12] = experiment: Anti-atherosclerosis activity in human HUVEC cells assessed as reduction in Bax level at 100 nM incubated for 24 hrs by Western blot analysis; type: functional, cell-based
[13] = Cmax in C57 mouse at 5 mg/kg, po; type: ADME, organism-based; conditions: in vivo
Huh-7 [14] = experiment: Antiproliferative activity human Huh-7 cells assessed as inhibition of cell growth incubated for 24 hrs by MTT assay; type: functional, cell-based
Mus musculus [15] = experiment: Anti-atherosclerosis activity in mouse assessed as reduction in plaque area in aorta at 15 mg/kg, po measured for 3 weeks; type: functional, organism-based
THP-1 [16] = experiment: Anti-atherosclerosis activity in human THP-1 cells transfected with PCSK9 siRNA assessed as reduction in NLRP3 level at 100 nM preincubated with compound for 24 hrs followed by ox-LDL induction and measured after 24 hrs by Western blot analysis; type: functional, cell-based; conditions: time 48.0 hrs
Mus musculus [17] = experiment: Anti-atherosclerosis activity in mouse assessed as […] in LDL level in liver at 15 mg/kg, po measured for 3 weeks; type: functional, organism-based
Huh-7 [18] = experiment: Induction of autophagy in human Huh-7 cells assessed as reduction in PCSK9 level at 100 nM incubated for 24 hrs in presence of carfilzomib by Western blot analysis; type: functional, cell-based
MOVAS [19] = experiment: Downregulation of PCSK9 expression in mouse MOVAS cells transfected with PCSK9 siRNA incubated for 24 hrs Western blot analysis; type: functional, cell-based
[20] = AUC (0 to t) in C57 mouse at 5 mg/kg, po; type: ADME, organism-based; conditions: in vivo
HUVEC [21] = experiment: Anti-atherosclerosis activity in human HUVEC cells transfected with PCSK9 siRNA assessed as inhibition of ox-LDL-induced caspase 3 expression at 100 nM preincubated with compound for 24 hrs followed by ox-LDL induction and measured after 24 hrs by Western blot analysis; type: functional, cell-based; conditions: time 48.0 hrs
MOVAS [22] = experiment: Antiproliferative activity mouse MOVAS cells assessed as inhibition of cell growth incubated for 24 hrs by MTT assay; type: functional, cell-based
Mus musculus [23] = experiment: Anti-atherosclerosis activity in mouse assessed as reduction in LDLR level in liver at 15 mg/kg, po measured for 3 weeks by Western blot analysis; type: functional, organism-based
Mus musculus [24] = experiment: Anti-atherosclerosis activity in mouse assessed as reduction in NLRP3 level in liver at 15 mg/kg, po measured for 3 weeks by Western blot analysis; type: functional, organism-based
[25] = Toxicity in mouse assessed as heart damage at 5 to 15 mg/kg, po; type: organism-based; conditions: in vivo, dose 5-15 mg/kg
HUVEC [26] = experiment: Anti-atherosclerosis activity in human HUVEC cells transfected with PCSK9 siRNA assessed as increase in Bcl-2 level at 100 nM incubated for 24 hrs by Western blot analysis; type: functional, cell-based
[27] = Cmax in C57 mouse at 5 mg/kg, ip; type: ADME, organism-based; conditions: in vivo
THP-1 [28] = experiment: Anti-atherosclerosis activity in human THP-1 cells transfected with PCSK9 siRNA assessed as reduction in ox-LDL-induced amount of red lipid droplets at 100 nM preincubated with compound for 24 hrs followed by ox-LDL induction and measured after 24 hrs by oil red staining based analysis; type: functional, cell-based; conditions: time 48.0 hrs
[29] = AUC (0 to infinity) in C57 mouse at 5 mg/kg, po; type: ADME, organism-based; conditions: in vivo
Mus musculus [30] = experiment: Anti-atherosclerosis activity in mouse assessed as reduction in NF-kappab level in liver at 15 mg/kg, po measured for 3 weeks by Western blot analysis; type: functional, organism-based
[31] = AUC (0 to t) in C57 mouse at 5 mg/kg, ip; type: ADME, organism-based; conditions: in vivo
Huh-7 [32] = experiment: Induction of LDL uptake in human Huh-7 cells at 100 nM incubated for 24 hrs by DiI-LDL DMEM staining based fluorescence microplate reader assay; type: functional, cell-based
THP-1 [33] = experiment: Anti-atherosclerosis activity in human THP-1 cells transfected with PCSK9 siRNA assessed as reduction in CD36 level at 100 nM preincubated with compound for 24 hrs followed by ox-LDL induction and measured after 24 hrs by Western blot analysis; type: functional, cell-based; conditions: time 48.0 hrs
[34] = AUC (0 to infinity) in C57 mouse at 5 mg/kg, ip; type: ADME, organism-based; conditions: in vivo
HUVEC [35] = experiment: Anti-atherosclerosis activity in human HUVEC cells transfected with PCSK9 siRNA assessed as inhibition of LPS-induced VCAM-1 mRNA expression at 100 nM preincubated with compound for 24 hrs followed by LPS induction and measured after 24 hrs by qPCR analysis; type: functional, cell-based; conditions: time 48.0 hrs
Huh-7 [36] = experiment: Induction of autophagy in human Huh-7 cells assessed as reduction in PCSK9 level at 100 nM incubated for 24 hrs in presence of EBSS by Western blot analysis; type: functional, cell-based
[37] = Bioavailability in C57 mouse at 5 mg/kg, ip; type: ADME, organism-based; conditions: in vivo
HUVEC [38] = experiment: Antiproliferative activity human HUVEC cells assessed as inhibition of cell growth incubated for 24 hrs by MTT assay; type: toxicity, cell-based
[39] = Tmax in C57 mouse at 5 mg/kg, ip; type: ADME, organism-based; conditions: in vivo
Mus musculus [40] = experiment: Anti-atherosclerosis activity in mouse assessed as reduction in TC level in plasma at 15 mg/kg, po measured for 3 weeks; type: functional, organism-based
HUVEC [41] = experiment: Anti-atherosclerosis activity in human HUVEC cells transfected with PCSK9 siRNA assessed as inhibition of ox-LDL-induced caspase 9 expression at 100 nM preincubated with compound for 24 hrs followed by ox-LDL induction and measured after 24 hrs by Western blot analysis; type: functional, cell-based; conditions: time 48.0 hrs
Mus musculus [42] = experiment: Anti-atherosclerosis activity in mouse assessed as reduction in PCSK9 level in liver at 15 mg/kg, po measured for 3 weeks by Western blot analysis; type: functional, organism-based
[43] = AUC (0 to infinity) in C57 mouse at 5 mg/kg, iv; type: ADME, organism-based; conditions: in vivo

**Q.** Which Activity (Huh-7 [1]) does the source give for `O=C1Nc2ccc(I)cc2/C1=C/c1cc(Br)c(O)c(Br)c1` here?
**A.** inactive

**Q.** What about the Activity (Huh-7 [2]) of the same compound?
**A.** inactive

**Q.** Which results are given for `COc1cc2c(cc1OCCOCCOCCOCCN1C(=O)/C(=C\c3cc(Br)c(O)c(Br)c3)c3cc(I)ccc31)C(C)(CC(=O)Nc1nccs1)NCC2` (stereo not given)?
**A.** F ([3]; mouse, po, 5 mg/kg): 0.63%; Activity [4]: Non-toxic; Activity (THP-1 [5]): Active; Activity (HUVEC [6]): Active; AUC(0-t) [7]: 9500 ng·h/mL; Activity (THP-1 [8]): Active; Activity (HepG2): Active; Tmax [9]: 15 min; Activity (Huh-7 [10]): inactive; Activity [11]: Non-toxic; Activity (HUVEC [12]): Active; Cmax [13]: 57.8 ng/mL; Activity (Huh-7 [14]): Active; Activity (Mus musculus [15]): Active; Activity (THP-1 [16]): Active; Activity (Mus musculus [17]): Active; Activity (Huh-7 [18]): Active; Activity (MOVAS [19]): Active; AUC(0-t) [20]: 59.8 ng·h/mL; Activity (HUVEC [21]): Active; Activity (MOVAS [22]): Active; Activity (Mus musculus [23]): Active; Activity (Huh-7 [1]): Active; Activity (Mus musculus [24]): Active; Activity [25]: Non-toxic; Activity (HUVEC [26]): Active; Cmax [27]: 1860 ng/mL; Activity (THP-1 [28]): Active; AUC ([29]; mouse, po, 5 mg/kg): 177 ng·h/mL; Activity (Mus musculus [30]): Active; AUC(0-t) [31]: 6070 ng·h/mL; Activity (Huh-7 [32]): Active; Activity (THP-1 [33]): Active; AUC(0-inf) [34]: 6350 ng·h/mL; Activity (HUVEC [35]): Active; Activity (Huh-7 [36]): Active; bioavailability [37]: 63.9%; Activity (HUVEC [38]): Non-toxic; Tmax [39]: 30 min; Activity (Huh-7 [2]): Active; Activity (Mus musculus [40]): Active; Activity (HUVEC [41]): Active; Activity (Mus musculus [42]): Active; AUC ([43]; mouse, iv, 5 mg/kg): 9932 ng·h/mL

**Q.** Which bioavailability ([3]; C57, mouse) does the source give for `COc1cc2c(cc1OCCCCN1C(=O)/C(=C\c3cc(Br)c(O)c(OC)c3)c3cc(Br)ccc31)C(C)(CC(=O)Nc1nccs1)NCC2` (stereo not given) here?
**A.** 1.02%

**Q.** And the AUC(0-t) [7]?
**A.** 9810 ng·h/mL

**Q.** What about the Tmax [9] of the same compound?
**A.** 60 min

**Q.** What about the Cmax [13] of the same compound?
**A.** 55 ng/mL

**Q.** And the AUC(0-t) [20]?
**A.** 101 ng·h/mL

**Q.** What about the Cmax [27] of the same compound?
**A.** 423 ng/mL

**Q.** And the AUC(0-inf) ([29]; C57, mouse)?
**A.** 119 ng·h/mL

**Q.** And the AUC(0-t) [31]?
**A.** 951 ng·h/mL

**Q.** And the AUC(0-inf) [34]?
**A.** 987 ng·h/mL

**Q.** What about the bioavailability [37] of the same compound?
**A.** 9.69%

**Q.** What about the Tmax [39] of the same compound?
**A.** 60 min

**Q.** And the AUC(0-inf) ([43]; C57, mouse)?
**A.** 10600 ng·h/mL

**Q.** What does the source list for `COc1cc2c(cc1O)C(C)(CC(=O)Nc1nccs1)NCC2` (stereo not given)?
**A.** Activity (Huh-7 [1]): inactive; Activity (Huh-7 [2]): inactive

— ChEMBL document CHEMBL6134871, “PCSK9 Targeted Autophagosome-Tethering Compounds: Design, Synthesis, and Antiatherosclerosis Evaluation” (J Med Chem, 2025)
